Source: US20070184519A1, “Peptides, polypeptides, and proteins of reduced immunogenicity and methods for their production” (priority 2003, published 2007)
Read-outs that look alike come from different tables or passages of the source.

Experiments:
[1] = cited from earlier work
DRB1*0301 = biological target: T1, DRB1*0301 (Homo sapiens, UniProt P01903+P01911, A100K/A102G/A103R/A169T/F55Y/I96L/K41T/L162R/M171V/P40S/Q125H/Q178H/Q39Y/R42S/S66N/T106N/T262R/W38E/Y61H); experiment: Class II peptide-binding assay DRB1*0301 (DR3)
T1 construct: Epstein-Barr virus (EBV) transformed homozygous cell lines were used as sources of human HLA Class II molecules; endogenous in cells; host or cells: MAT (EBV-transformed homozygous B cell line)
T1 sequence (P01903 26-254, other chains not shown): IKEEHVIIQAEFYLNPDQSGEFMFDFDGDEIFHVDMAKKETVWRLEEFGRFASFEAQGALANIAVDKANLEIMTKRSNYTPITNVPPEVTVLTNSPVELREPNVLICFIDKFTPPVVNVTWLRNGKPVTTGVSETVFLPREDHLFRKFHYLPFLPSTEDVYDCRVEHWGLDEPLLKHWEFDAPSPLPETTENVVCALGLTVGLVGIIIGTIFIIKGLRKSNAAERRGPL

DRB1*0101 = biological target: T2, DRB1*0101 (Homo sapiens, UniProt P01903+P01911, A100R/D57E/F55L/F60I/F76Y/I96L/L162R/M171V/P40L/Q125E/R42F/V115G/Y59C); experiment: Class II peptide-binding assay DRB1*0101 (DR1)
T2 construct: Epstein-Barr virus (EBV) transformed homozygous cell lines were used as sources of human HLA Class II molecules; endogenous in cells; host or cells: LG2 (EBV-transformed homozygous B cell line)

DRB1*0404 = biological target: T3, DRB1*0404 (Homo sapiens, UniProt P01903+P01911, A100R/A169T/F76Y/I96L/K127E/L162R/M171V/N62H/P40V/Q125Y/R42H/S133A/S149N/S66Y/V209L/W38E); experiment: Class II peptide-binding assay DRB1*0404 (DR4w14)
T3 construct: Epstein-Barr virus (EBV) transformed homozygous cell lines were used as sources of human HLA Class II molecules; endogenous in cells; host or cells: BIN40 (EBV-transformed homozygous B cell line)

DRB1*1501 = biological target: T4, DRB1*1501 (Homo sapiens, UniProt P01903+P01911); experiment: Class II peptide-binding assay DRB1*1501 (DR2w2b)
T4 construct: expressed in transfected cells; host or cells: transfected fibroblasts L466.1

DRB1*1302 = biological target: T5, DRB1*1302 (Homo sapiens, UniProt P01903+P01911, A100E/A169T/K41T/L162R/M171V/P40S/Q125H/Q178H/Q39Y/Q99D/R42S/S66N/T262R/V115G/W38E/Y61H); experiment: Class II peptide-binding assay DRB1*1302 (DR6w19)
T5 construct: Epstein-Barr virus (EBV) transformed homozygous cell lines were used as sources of human HLA Class II molecules; endogenous in cells; host or cells: HO301 / H0301 (EBV-transformed homozygous B cell line)
T5 sequence (P01903 26-254, other chains not shown): as above

DRB1*0405 = biological target: T6, DRB1*0405 (Homo sapiens, UniProt P01903+P01911, A100R/A169T/D86S/F76Y/I96L/K127E/L162R/M171V/N62H/P40V/Q125Y/R42H/S133A/S149N/S66Y/V115G/V209L/W38E); experiment: Class II peptide-binding assay DRB1*0405 (DR4w15)
T6 construct: Epstein-Barr virus (EBV) transformed homozygous cell lines were used as sources of human HLA Class II molecules; endogenous in cells; host or cells: KT3 (EBV-transformed homozygous B cell line)

DRB1*0401 = biological target: T7, DRB1*0401 (Homo sapiens, UniProt P01903+P01911, A100K/A169T/F76Y/I96L/K127E/L162R/M171V/N62H/P40V/Q125Y/R42H/S133A/S149N/S66Y/V115G/V209L/W38E); experiment: Class II peptide-binding assay DRB1*0401 (DR4w4)
T7 construct: Epstein-Barr virus (EBV) transformed homozygous cell lines were used as sources of human HLA Class II molecules; endogenous in cells; host or cells: PREISS (EBV-transformed homozygous B cell line)

DRB4*0101 = biological target: T8, DRB4*0101 (Homo sapiens, UniProt P01903+P13762, G164S); experiment: Class II peptide-binding assay DRB4*0101 (DRw53)
T8 construct: expressed in transfected cells; host or cells: transfected fibroblasts L257.6

DRB5*0101 = biological target: T9, DRB5*0101 (Homo sapiens, UniProt P01903+Q30154); experiment: Class II peptide-binding assay DRB5*0101 (DR2w2a)
T9 construct: Epstein-Barr virus (EBV) transformed homozygous cell lines were used as sources of human HLA Class II molecules; endogenous in cells; host or cells: GM3107 (EBV-transformed homozygous B cell line)

DRB1*0701 = biological target: T10, DRB1*0701 (Homo sapiens, UniProt P01903+P01911, A100R/A102G/A103Q/D57E/D86V/E43K/F76Y/K127E/L162R/M171V/P40G/Q125H/Q99D/R33Q/R42Y/R54Q/S133A/S66F/T210M/V115G/Y107V/Y59L/Y89S); experiment: Class II peptide-binding assay DRB1*0701 (DR7)
T10 construct: Epstein-Barr virus (EBV) transformed homozygous cell lines were used as sources of human HLA Class II molecules; endogenous in cells; host or cells: PITOUT (EBV-transformed homozygous B cell line)

DRB1*0802 = biological target: T11, DRB1*0802 (Homo sapiens, UniProt P01903+P01911, A100R/A103L/A169T/F76Y/H45Y/I96F/K41T/L162R/M171V/P40S/Q125H/Q178H/Q39Y/Q99D/R218S/R42G/S66Y/V115G/W38E); experiment: Class II peptide-binding assay DRB1*0802 (DR8w2)
T11 construct: Epstein-Barr virus (EBV) transformed homozygous cell lines were used as sources of human HLA Class II molecules; endogenous in cells; host or cells: OLL (EBV-transformed homozygous B cell line)

DRB1*1101 = biological target: T12, DRB1*1101 (Homo sapiens, UniProt P01903+P01911, A100R/A169T/A87E/I96F/K41T/L162R/M171V/P40S/Q125H/Q178H/Q39Y/Q99D/R42S/S66Y/T262R/V115G/W38E); experiment: Class II peptide-binding assay DRB1*1101 (DR5w11)
T12 construct: Epstein-Barr virus (EBV) transformed homozygous cell lines were used as sources of human HLA Class II molecules; endogenous in cells; host or cells: SWEIG (EBV-transformed homozygous B cell line)
T12 sequence (P01903 26-254, other chains not shown): as above

DRB1*0901 = DRB1*0901 (Homo sapiens, UniProt P01903+P01911, A100R/A103E/D57H/D86V/F55Y/F60I/F76Y/I96F/K127E/L162R/M171V/P40D/Q125H/Q99R/R33Q/R42F/S133A/S66N/T210M/V115G/W38K/Y107V/Y59G/Y89S); experiment: Class II peptide-binding assay DRB1*0901 (DR9)
DRB3*0101 = biological target: T13, DRB3*0101 (Homo sapiens, UniProt P01903+P79483); experiment: Class II peptide-binding assay DRB3*0101 (DR52a)
T13 construct: expressed in transfected cells; host or cells: transfected fibroblasts TR81.19

[2] = scientific publications, package insert, FDA documents, patent applications

In the case of “Insulin: human insulin, alpha and beta chains”, the “Immunogenicity (documented)” value [1, 2] is listed as “YES”.

In the case of “hGH: 191 amino acid protein produced by recombinant DNA technology”, the patients developing antibodies ([1]; human, in vivo) is listed as “Thirty” and the “Immunogenicity (documented)” value [1, 2] is listed as “YES”.

For “Calcitonin: 32 amino acid polypeptide derived from salmon origin”, the “Immunogenicity (documented)” value ([1]; human, in vivo) is listed as “YES”.

With `CC(C)C[C@H](NC(=O)[C@@H]1CCCN1)C(=O)NCC(=O)N[C@@H](Cc1ccccc1)C(=O)N[C@@H](Cc1ccccc1)C(=O)N1CCC[C@H]1C(=O)N[C@@H](CC(=O)O)C(=O)N[C@@H](Cc1c[nH]cn1)C(=O)N[C@@H](CCC(N)=O)C(=O)N[C@@H](CC(C)C)C(=O)N[C@@H](CC(=O)O)C(=O)N1CCC[C@H]1C(=O)N[C@@H](C)C(=O)N[C@@H](Cc1ccccc1)C(=O)NCC(=O)N[C@@H](C)C(=O)N[C@@H](CC(N)=O)C(=O)N[C@@H](CO)C(=O)N[C@@H](CC(N)=O)C(=O)N[C@@H](CC(N)=O)C(=O)N1CCC[C@H]1C(=O)N[C@@H](CC(=O)O)C(=O)N[C@@H](Cc1c[nH]c2ccccc12)C(=O)N[C@@H](CC(=O)O)C(=O)N[C@@H](Cc1ccccc1)C(=O)N[C@@H](CC(N)=O)C(=O)N1CCC[C@H]1C(=O)O` the IC50 (DRB1*0301) was > 20 µM, the IC50 (DRB1*0101) was > 20 µM and the IC50 (DRB1*0404) was > 20 µM. The IC50 (DRB1*1501) was 1.98 µM, the IC50 (DRB1*1302) was > 10 µM and the IC50 (DRB1*0405) was 0.031 µM. The IC50 (DRB1*0401) was > 20 µM, the IC50 (DRB4*0101) was 3.14 µM and the IC50 (DRB5*0101) was > 20 µM. The IC50 (DRB1*0701) was > 20 µM, the IC50 (DRB1*0802) was > 20 µM and the IC50 (DRB1*1101) was > 20 µM. It also gave an IC50 (DRB1*0901) of 15.7 µM and an IC50 (DRB3*0101) of 0.311 µM.

B1: IFNβ: interferon beta (protein)
chain: MSYNLLGFLQRSSNCQCQKLLWQLNGRLEYCLKDRRNFDIPEEIKQLQQFQKEDAAVTIYEMLQNIFAIFRQDSSSTGWNETIVENLLANVYHQRNHLKTVLEEKLEKEDFTRGKRMSSLHLKRYYGRILHYLKAKEDSHCAWTIVRVEILRNFYVINRLTGYLRN
In the case of B1, the “Immunogenicity (documented)” value [1, 2] is listed as “YES”.
